In BindingDB's records for doi:10.1016/s1074-5521(98)90117-x (Dupont Pharmaceuticals, 1998):

Target: HIV-1 protease (Human immunodeficiency virus, UniProt O90785)
Assay: Protease Inhibtion Assay
Conditions: pH 5.5
From the text: Protease inhibition fluorescence-based assay using cyclic ureas to inhibit HIV-protease.

Chain of HIV-1 protease (O90785 whole entry): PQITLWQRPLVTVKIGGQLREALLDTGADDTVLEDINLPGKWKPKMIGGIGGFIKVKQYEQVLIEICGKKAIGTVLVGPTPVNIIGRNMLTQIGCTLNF

Ki | SMILES
0.041 nM | CCNc1[nH]nc2ccc(CN3C(=O)N(Cc4ccc5n[nH]c(NCC)c5c4)[C@H](Cc4ccccc4)[C@H](O)[C@@H](O)[C@H]3Cc3ccccc3)cc12 [3-alkylaminoindazole cyclic urea, (Et)]
0.021 nM | CCCCN1C(=O)N(Cc2ccc3[nH]nc(N)c3c2)[C@H](Cc2ccccc2)[C@H](O)[C@@H](O)[C@H]1Cc1ccccc1 [(4R,5S,6S,7R)-1-(3-Amino-1H-indazol-5-ylmethyl)-4,7-dibenzyl-3-butyl-5,6-dihydroxy-[1,3]diazepan-2-one]
0.023 nM | Nc1n[nH]c2ccc(CN3C(=O)N(Cc4ccc5ccccc5c4)[C@H](Cc4ccccc4)[C@H](O)[C@@H](O)[C@H]3Cc3ccccc3)cc12 [2-Naphthylmethyl cyclic urea]
0.031 nM | Nc1n[nH]c2ccc(CN3C(=O)N(Cc4ccccc4)[C@H](Cc4ccccc4)[C@H](O)[C@@H](O)[C@H]3Cc3ccccc3)cc12 [DMP850]
0.31 nM | O=C1N(Cc2ccc(CO)cc2)[C@H](Cc2ccccc2)[C@H](O)[C@@H](O)[C@@H](Cc2ccccc2)N1Cc1ccc(CO)cc1 [(4R,5S,6S,7R)-4,7-dibenzyl-5,6-dihydroxy-1,3-bis({[4-(hydroxymethyl)phenyl]methyl})-1,3-diazepan-2-one]
0.01 nM | Nc1n[nH]c2ccc(CN3C(=O)N(Cc4ccc5[nH]nc(N)c5c4)[C@H](Cc4ccccc4)[C@H](O)[C@@H](O)[C@H]3Cc3ccccc3)cc12 [3-Aminoindazole, 2]
0.02 nM | Nc1n[nH]c2ccc(CN3C(=O)N(CC4CC4)[C@H](Cc4ccccc4)[C@H](O)[C@@H](O)[C@H]3Cc3ccccc3)cc12 [Cyclopropylmethyl cyclic urea]
0.016 nM | Nc1n[nH]c2ccc(CN3C(=O)N(CC4CCC4)[C@H](Cc4ccccc4)[C@H](O)[C@@H](O)[C@H]3Cc3ccccc3)cc12 [Cyclobutylmethyl cyclic urea]
0.041 nM | CCCCCN1C(=O)N(Cc2ccc3[nH]nc(N)c3c2)[C@H](Cc2ccccc2)[C@H](O)[C@@H](O)[C@H]1Cc1ccccc1 [n-Pentyl cyclic urea]
0.3 nM | Nc1cccc(CN2C(=O)N(Cc3cccc(N)c3)[C@H](Cc3ccccc3)[C@H](O)[C@@H](O)[C@H]2Cc2ccccc2)c1
0.23 nM | CCCNc1[nH]nc2ccc(CN3C(=O)N(Cc4ccc5n[nH]c(NCCC)c5c4)[C@H](Cc4ccccc4)[C@H](O)[C@@H](O)[C@H]3Cc3ccccc3)cc12 [3-alkylaminoindazole cyclic urea, (n-Pr)]
0.018 nM | O=C1N(Cc2ccc3[nH]ncc3c2)[C@H](Cc2ccccc2)[C@H](O)[C@@H](O)[C@@H](Cc2ccccc2)N1Cc1ccc2[nH]ncc2c1 [(4R,5S,6S,7R)-4,7-dibenzyl-5,6-dihydroxy-1,3-bis(1H-indazol-5-ylmethyl)-1,3-diazepan-2-one]
0.09 nM | CC(C)Nc1[nH]nc2ccc(CN3C(=O)N(Cc4ccc5n[nH]c(NC(C)C)c5c4)[C@H](Cc4ccccc4)[C@H](O)[C@@H](O)[C@H]3Cc3ccccc3)cc12 [3-alkylaminoindazole cyclic urea, (i-Pr)]
< 0.01 nM | Nc1n[nH]c2ccc(CN3C(=O)N(Cc4ccc5[nH]nc(N)c5c4)[C@H](Cc4ccccc4)[C@H](O)[C@@H](O)[C@H]3Cc3ccccc3)cc12 [3-alkylaminoindazole cyclic urea, (H)]
0.018 nM | CNc1[nH]nc2ccc(CN3C(=O)N(Cc4ccc5n[nH]c(NC)c5c4)[C@H](Cc4ccccc4)[C@H](O)[C@@H](O)[C@H]3Cc3ccccc3)cc12 [3-alkylaminoindazole cyclic urea, (Me)]
0.13 nM | CCCCCCN1C(=O)N(Cc2ccc3[nH]nc(N)c3c2)[C@H](Cc2ccccc2)[C@H](O)[C@@H](O)[C@H]1Cc1ccccc1 [n-Hexyl cyclic urea]
